# According to ChEMBL document CHEMBL3421530, “Azepinone-Containing Tetrapeptide Analogues of Melanotropin Lead to Selective hMC4R Agonists and hMC5R Antagonist” (ACS Med Chem Lett, 2015):
# Biological target: T1, Melanocortin receptor 5 (Homo sapiens, UniProt P33032)
# Assay: Displacement of [125I]-NDP-alpha-MSH from human MC5 receptor expressed in HEK293 cells by gamma counting analysis
# Type: cell-based
# Conditions: not given; call rule not given here
# T1 sequence (P33032 whole entry): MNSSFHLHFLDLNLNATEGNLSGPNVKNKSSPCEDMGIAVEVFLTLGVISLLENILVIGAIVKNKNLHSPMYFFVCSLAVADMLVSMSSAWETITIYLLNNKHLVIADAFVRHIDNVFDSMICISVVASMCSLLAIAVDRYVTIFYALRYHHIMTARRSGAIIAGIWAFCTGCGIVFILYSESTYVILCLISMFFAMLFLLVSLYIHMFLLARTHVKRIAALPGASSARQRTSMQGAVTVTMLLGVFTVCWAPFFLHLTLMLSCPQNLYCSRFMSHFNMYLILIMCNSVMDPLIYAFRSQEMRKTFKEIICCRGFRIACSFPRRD
row,Structure (SMILES),IC50 [nM]
1,CC(=O)N[C@H]1Cn2nncc2CN([C@H](Cc2ccccc2)C(=O)N[C@@H](CCCNC(=N)N)C(=O)N[C@@H](Cc2c[nH]c3ccccc23)C(N)=O)C1=O,137
2,CC(=O)N[C@H]1Cc2c([nH]c3ccccc23)CN([C@H](Cc2ccccc2)C(=O)N[C@@H](CCCNC(=N)N)C(=O)N[C@@H](Cc2c[nH]c3ccccc23)C(N)=O)C1=O,636

# Biological target: T1, Melanocortin receptor 5
# Assay: Antagonist activity at human MC5 receptor expressed in HEK293 cells assessed as cAMP accumulation at 10 uM by luminescence counter relative to MT-II
# Type: functional, cell-based
# Parameters: scale not given: the % may be the effect or the level left
# Conditions: not given
row,Structure (SMILES),Activity [%]
1,CC(=O)N[C@H]1Cn2nncc2CN([C@H](Cc2ccccc2)C(=O)N[C@@H](CCCNC(=N)N)C(=O)N[C@@H](Cc2c[nH]c3ccccc23)C(N)=O)C1=O,0
2,CC(=O)N[C@H]1Cc2c([nH]c3ccccc23)CN([C@H](Cc2ccccc2)C(=O)N[C@@H](CCCNC(=N)N)C(=O)N[C@@H](Cc2c[nH]c3ccccc23)C(N)=O)C1=O,0

# Biological target: T2, Melanocortin receptor 3 (Homo sapiens, UniProt P41968)
# T2 sequence (P41968 whole entry): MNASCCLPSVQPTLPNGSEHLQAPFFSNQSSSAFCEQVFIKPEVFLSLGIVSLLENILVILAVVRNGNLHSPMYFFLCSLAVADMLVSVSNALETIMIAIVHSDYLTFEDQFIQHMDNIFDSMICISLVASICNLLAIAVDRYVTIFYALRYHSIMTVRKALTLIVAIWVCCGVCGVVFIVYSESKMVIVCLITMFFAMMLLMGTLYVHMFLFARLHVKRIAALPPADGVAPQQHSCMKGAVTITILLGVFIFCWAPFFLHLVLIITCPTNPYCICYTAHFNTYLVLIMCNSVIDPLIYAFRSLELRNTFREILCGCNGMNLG
# Assay: Displacement of [125I]-NDP-alpha-MSH from human MC3 receptor expressed in HEK293 cells at 10 uM by gamma counting analysis
# Type: cell-based
# Conditions: not given
row,Structure (SMILES),%max [%]
1,CC(=O)N[C@H]1Cn2nncc2CN([C@H](Cc2ccccc2)C(=O)N[C@@H](CCCNC(=N)N)C(=O)N[C@@H](Cc2c[nH]c3ccccc23)C(N)=O)C1=O,55

# Biological target: T3, Melanocortin receptor 4 (Homo sapiens, UniProt P32245)
# T3 sequence (P32245 whole entry): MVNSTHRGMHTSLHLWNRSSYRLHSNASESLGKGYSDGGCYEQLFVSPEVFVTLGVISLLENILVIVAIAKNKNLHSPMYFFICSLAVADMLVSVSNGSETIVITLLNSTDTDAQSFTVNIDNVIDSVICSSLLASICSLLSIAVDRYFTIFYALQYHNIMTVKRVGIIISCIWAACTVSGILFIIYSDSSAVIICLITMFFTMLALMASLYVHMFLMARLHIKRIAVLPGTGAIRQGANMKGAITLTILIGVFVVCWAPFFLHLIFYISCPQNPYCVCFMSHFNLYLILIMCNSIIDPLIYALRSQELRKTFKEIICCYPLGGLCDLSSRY
# Assay: Agonist activity at human MC4 receptor expressed in HEK293 cells assessed as cAMP accumulation by luminescence counter
# Type: functional, cell-based
# Conditions: not given
row,Structure (SMILES),EC50 [nM]
1,CC(=O)N[C@H]1Cn2nncc2CN([C@H](Cc2ccccc2)C(=O)N[C@@H](CCCNC(=N)N)C(=O)N[C@@H](Cc2c[nH]c3ccccc23)C(N)=O)C1=O,203
2,CC(=O)N[C@H]1Cc2c([nH]c3ccccc23)CN([C@H](Cc2ccccc2)C(=O)N[C@@H](CCCNC(=N)N)C(=O)N[C@@H](Cc2c[nH]c3ccccc23)C(N)=O)C1=O,0.3

# Biological target: T3, Melanocortin receptor 4
# Assay: Displacement of [125I]-NDP-alpha-MSH from human MC4 receptor expressed in HEK293 cells at 10 uM by gamma counting analysis
# Type: cell-based
# Conditions: not given
row,Structure (SMILES),%max [%]
1,CC(=O)N[C@H]1Cn2nncc2CN([C@H](Cc2ccccc2)C(=O)N[C@@H](CCCNC(=N)N)C(=O)N[C@@H](Cc2c[nH]c3ccccc23)C(N)=O)C1=O,80
2,CC(=O)N[C@H]1Cc2c([nH]c3ccccc23)CN([C@H](Cc2ccccc2)C(=O)N[C@@H](CCCNC(=N)N)C(=O)N[C@@H](Cc2c[nH]c3ccccc23)C(N)=O)C1=O,50

# Biological target: T1, Melanocortin receptor 5
# Assay: Antagonist activity at human MC5 receptor expressed in HEK293 cells assessed as cAMP accumulation by luminescence counter
# Type: functional, cell-based
# Conditions: hek293
row,Structure (SMILES),EC50
1,CC(=O)N[C@H]1Cn2nncc2CN([C@H](Cc2ccccc2)C(=O)N[C@@H](CCCNC(=N)N)C(=O)N[C@@H](Cc2c[nH]c3ccccc23)C(N)=O)C1=O,Not Active
2,CC(=O)N[C@H]1Cc2c([nH]c3ccccc23)CN([C@H](Cc2ccccc2)C(=O)N[C@@H](CCCNC(=N)N)C(=O)N[C@@H](Cc2c[nH]c3ccccc23)C(N)=O)C1=O,Not Active

# System: not listed separately
# Assay: Retention time of the compound
# Type: physicochemical
# Conditions: not given
row,Structure (SMILES),Retention_time [min]
1,CC(=O)N[C@H]1Cn2nncc2CN([C@H](Cc2ccccc2)C(=O)N[C@@H](CCCNC(=N)N)C(=O)N[C@@H](Cc2c[nH]c3ccccc23)C(N)=O)C1=O,10.43
2,CC(=O)N[C@H]1Cc2c([nH]c3ccccc23)CN([C@H](Cc2ccccc2)C(=O)N[C@@H](CCCNC(=N)N)C(=O)N[C@@H](Cc2c[nH]c3ccccc23)C(N)=O)C1=O,13.05

# Biological target: T3, Melanocortin receptor 4
# Assay: Agonist activity at human MC4 receptor expressed in HEK293 cells assessed as cAMP accumulation at 10 uM by luminescence counter relative to MT-II
# Type: functional, cell-based
# Conditions: not given
row,Structure (SMILES),Activity [%]
1,CC(=O)N[C@H]1Cn2nncc2CN([C@H](Cc2ccccc2)C(=O)N[C@@H](CCCNC(=N)N)C(=O)N[C@@H](Cc2c[nH]c3ccccc23)C(N)=O)C1=O,80
2,CC(=O)N[C@H]1Cc2c([nH]c3ccccc23)CN([C@H](Cc2ccccc2)C(=O)N[C@@H](CCCNC(=N)N)C(=O)N[C@@H](Cc2c[nH]c3ccccc23)C(N)=O)C1=O,51

# Biological target: T4, Melanocyte-stimulating hormone receptor (Homo sapiens, UniProt Q01726)
# Assay: Displacement of [125I]-NDP-alpha-MSH from human MC1 receptor expressed in HEK293 cells at 10 uM by gamma counting analysis
# Type: cell-based
# Conditions: not given
# Target sequence in this assay (Q01726 whole entry, looked up): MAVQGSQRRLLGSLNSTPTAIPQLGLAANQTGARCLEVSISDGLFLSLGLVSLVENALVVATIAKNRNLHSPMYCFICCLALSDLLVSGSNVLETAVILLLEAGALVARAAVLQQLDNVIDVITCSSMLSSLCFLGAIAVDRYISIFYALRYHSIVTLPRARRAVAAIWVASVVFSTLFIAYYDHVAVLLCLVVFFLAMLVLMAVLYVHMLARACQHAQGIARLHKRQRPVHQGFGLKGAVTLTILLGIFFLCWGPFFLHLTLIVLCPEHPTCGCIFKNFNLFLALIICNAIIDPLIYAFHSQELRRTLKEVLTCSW
row,Structure (SMILES),%max [%]
1,CC(=O)N[C@H]1Cn2nncc2CN([C@H](Cc2ccccc2)C(=O)N[C@@H](CCCNC(=N)N)C(=O)N[C@@H](Cc2c[nH]c3ccccc23)C(N)=O)C1=O,60
2,CC(=O)N[C@H]1Cc2c([nH]c3ccccc23)CN([C@H](Cc2ccccc2)C(=O)N[C@@H](CCCNC(=N)N)C(=O)N[C@@H](Cc2c[nH]c3ccccc23)C(N)=O)C1=O,50

# Biological target: T2, Melanocortin receptor 3
# Assay: Displacement of [125I]-NDP-alpha-MSH from human MC3 receptor expressed in HEK293 cells by gamma counting analysis
# Type: cell-based
# Conditions: hek293
row,Structure (SMILES),IC50
1,CC(=O)N[C@H]1Cc2c([nH]c3ccccc23)CN([C@H](Cc2ccccc2)C(=O)N[C@@H](CCCNC(=N)N)C(=O)N[C@@H](Cc2c[nH]c3ccccc23)C(N)=O)C1=O,Not Active

# Same assay, conditions: read-out: IC50
row,Structure (SMILES),IC50 [nM]
1,CC(=O)N[C@H]1Cn2nncc2CN([C@H](Cc2ccccc2)C(=O)N[C@@H](CCCNC(=N)N)C(=O)N[C@@H](Cc2c[nH]c3ccccc23)C(N)=O)C1=O,1000

# Biological target: T4, Melanocyte-stimulating hormone receptor
# Assay: Activity at human MC1 receptor expressed in HEK293 cells assessed as cAMP accumulation by luminescence counter
# Type: functional, cell-based
# Conditions: hek293
# Target sequence in this assay (Q01726 whole entry): as the sequence (Q01726 whole entry, looked up) above
row,Structure (SMILES),EC50
1,CC(=O)N[C@H]1Cc2c([nH]c3ccccc23)CN([C@H](Cc2ccccc2)C(=O)N[C@@H](CCCNC(=N)N)C(=O)N[C@@H](Cc2c[nH]c3ccccc23)C(N)=O)C1=O,Not Active

# Same assay, conditions: read-out: EC50
row,Structure (SMILES),EC50 [nM]
1,CC(=O)N[C@H]1Cn2nncc2CN([C@H](Cc2ccccc2)C(=O)N[C@@H](CCCNC(=N)N)C(=O)N[C@@H](Cc2c[nH]c3ccccc23)C(N)=O)C1=O,750

# Biological target: T1, Melanocortin receptor 5
# Assay: Displacement of [125I]-NDP-alpha-MSH from human MC5 receptor expressed in HEK293 cells at 10 uM by gamma counting analysis
# Type: cell-based
# Conditions: not given
row,Structure (SMILES),%max [%]
1,CC(=O)N[C@H]1Cn2nncc2CN([C@H](Cc2ccccc2)C(=O)N[C@@H](CCCNC(=N)N)C(=O)N[C@@H](Cc2c[nH]c3ccccc23)C(N)=O)C1=O,70
2,CC(=O)N[C@H]1Cc2c([nH]c3ccccc23)CN([C@H](Cc2ccccc2)C(=O)N[C@@H](CCCNC(=N)N)C(=O)N[C@@H](Cc2c[nH]c3ccccc23)C(N)=O)C1=O,80

# Biological target: T2, Melanocortin receptor 3
# Assay: Activity at human MC3 receptor expressed in HEK293 cells assessed as cAMP accumulation at 10 uM by luminescence counter relative to MT-II
# Type: functional, cell-based
# Conditions: not given
row,Structure (SMILES),Activity [%]
1,CC(=O)N[C@H]1Cn2nncc2CN([C@H](Cc2ccccc2)C(=O)N[C@@H](CCCNC(=N)N)C(=O)N[C@@H](Cc2c[nH]c3ccccc23)C(N)=O)C1=O,20
2,CC(=O)N[C@H]1Cc2c([nH]c3ccccc23)CN([C@H](Cc2ccccc2)C(=O)N[C@@H](CCCNC(=N)N)C(=O)N[C@@H](Cc2c[nH]c3ccccc23)C(N)=O)C1=O,20

# Biological target: T3, Melanocortin receptor 4
# Assay: Displacement of [125I]-NDP-alpha-MSH from human MC4 receptor expressed in HEK293 cells by gamma counting analysis
# Type: cell-based
# Conditions: not given
row,Structure (SMILES),IC50 [nM]
1,CC(=O)N[C@H]1Cn2nncc2CN([C@H](Cc2ccccc2)C(=O)N[C@@H](CCCNC(=N)N)C(=O)N[C@@H](Cc2c[nH]c3ccccc23)C(N)=O)C1=O,200
2,CC(=O)N[C@H]1Cc2c([nH]c3ccccc23)CN([C@H](Cc2ccccc2)C(=O)N[C@@H](CCCNC(=N)N)C(=O)N[C@@H](Cc2c[nH]c3ccccc23)C(N)=O)C1=O,447

# Biological target: T4, Melanocyte-stimulating hormone receptor
# Assay: Activity at human MC1 receptor expressed in HEK293 cells assessed as cAMP accumulation at 10 uM by luminescence counter relative to MT-II
# Type: functional, cell-based
# Conditions: not given
# Target sequence in this assay (Q01726 whole entry, looked up): as above
row,Structure (SMILES),Activity [%]
1,CC(=O)N[C@H]1Cn2nncc2CN([C@H](Cc2ccccc2)C(=O)N[C@@H](CCCNC(=N)N)C(=O)N[C@@H](Cc2c[nH]c3ccccc23)C(N)=O)C1=O,100
2,CC(=O)N[C@H]1Cc2c([nH]c3ccccc23)CN([C@H](Cc2ccccc2)C(=O)N[C@@H](CCCNC(=N)N)C(=O)N[C@@H](Cc2c[nH]c3ccccc23)C(N)=O)C1=O,0

# Biological target: T2, Melanocortin receptor 3
# Assay: Activity at human MC3 receptor expressed in HEK293 cells assessed as cAMP accumulation by luminescence counter
# Type: functional, cell-based
# Conditions: read-out: EC50
row,Structure (SMILES),EC50 [nM]
1,CC(=O)N[C@H]1Cn2nncc2CN([C@H](Cc2ccccc2)C(=O)N[C@@H](CCCNC(=N)N)C(=O)N[C@@H](Cc2c[nH]c3ccccc23)C(N)=O)C1=O,55
2,CC(=O)N[C@H]1Cc2c([nH]c3ccccc23)CN([C@H](Cc2ccccc2)C(=O)N[C@@H](CCCNC(=N)N)C(=O)N[C@@H](Cc2c[nH]c3ccccc23)C(N)=O)C1=O,52

# Biological target: T4, Melanocyte-stimulating hormone receptor
# Assay: Displacement of [125I]-NDP-alpha-MSH from human MC1 receptor expressed in HEK293 cells by gamma counting analysis
# Type: cell-based
# Conditions: not given
# Target sequence in this assay (Q01726 whole entry): as the sequence (Q01726 whole entry, looked up) above
row,Structure (SMILES),IC50 [nM]
1,CC(=O)N[C@H]1Cn2nncc2CN([C@H](Cc2ccccc2)C(=O)N[C@@H](CCCNC(=N)N)C(=O)N[C@@H](Cc2c[nH]c3ccccc23)C(N)=O)C1=O,4540
2,CC(=O)N[C@H]1Cc2c([nH]c3ccccc23)CN([C@H](Cc2ccccc2)C(=O)N[C@@H](CCCNC(=N)N)C(=O)N[C@@H](Cc2c[nH]c3ccccc23)C(N)=O)C1=O,1350
